Earlier results in patent US8529935B2, “Antibacterial hydrogel and use thereof in orthopedics” (Mero S.R.L., priority 2009, dated 2013).

Settings: known from the literature

SMILES	minimum inhibiting concentration (MIC)
CN[C@H](CC(C)C)C(=O)N[C@H]1C(=O)N[C@@H](CC(N)=O)C(=O)N[C@H]2C(=O)N[C@H]3C(=O)N[C@H](C(=O)N[C@H](C(=O)O)c4cc(O)cc(O)c4-c4cc3ccc4O)[C@H](O)c3ccc(c(Cl)c3)Oc3cc2cc(c3O[C@@H]2O[C@H](CO)[C@@H](O)[C@H](O)[C@H]2O[C@H]2C[C@](C)(N)[C@H](O)[C@H](C)O2)Oc2ccc(cc2Cl)[C@H]1O [vancomycin]	1.56 to 3.12 mg/L
NC[C@H]1O[C@H](O[C@H]2[C@H](O)[C@@H](O[C@H]3O[C@H](CO)[C@@H](O)[C@H](N)[C@H]3O)[C@H](N)C[C@@H]2N)[C@H](N)C[C@@H]1O [tobramycin]	about 1 mg/l
